Results published in US11186589B2, “Cyanoindoline derivatives as NIK inhibitors” (Janssen Pharmaceutica NV, priority 2016, dated 2021).
Like-named read-outs stand apart in the source and are kept apart here.

Tests used:
NIK/MAP3K14 = NIK/MAP3K14 (Homo sapiens (Human), UniProt Q99558); test: Inhibition of auto-phosphorylation of recombinant human NF-kappaB-inducing kinase (NIK/MAP3K14) activity (AlphaScreen); format: biochemical; conditions: averaged values over all measurements on all batches, 25 microM ATP
Sequence of NIK/MAP3K14 (Q99558 whole entry): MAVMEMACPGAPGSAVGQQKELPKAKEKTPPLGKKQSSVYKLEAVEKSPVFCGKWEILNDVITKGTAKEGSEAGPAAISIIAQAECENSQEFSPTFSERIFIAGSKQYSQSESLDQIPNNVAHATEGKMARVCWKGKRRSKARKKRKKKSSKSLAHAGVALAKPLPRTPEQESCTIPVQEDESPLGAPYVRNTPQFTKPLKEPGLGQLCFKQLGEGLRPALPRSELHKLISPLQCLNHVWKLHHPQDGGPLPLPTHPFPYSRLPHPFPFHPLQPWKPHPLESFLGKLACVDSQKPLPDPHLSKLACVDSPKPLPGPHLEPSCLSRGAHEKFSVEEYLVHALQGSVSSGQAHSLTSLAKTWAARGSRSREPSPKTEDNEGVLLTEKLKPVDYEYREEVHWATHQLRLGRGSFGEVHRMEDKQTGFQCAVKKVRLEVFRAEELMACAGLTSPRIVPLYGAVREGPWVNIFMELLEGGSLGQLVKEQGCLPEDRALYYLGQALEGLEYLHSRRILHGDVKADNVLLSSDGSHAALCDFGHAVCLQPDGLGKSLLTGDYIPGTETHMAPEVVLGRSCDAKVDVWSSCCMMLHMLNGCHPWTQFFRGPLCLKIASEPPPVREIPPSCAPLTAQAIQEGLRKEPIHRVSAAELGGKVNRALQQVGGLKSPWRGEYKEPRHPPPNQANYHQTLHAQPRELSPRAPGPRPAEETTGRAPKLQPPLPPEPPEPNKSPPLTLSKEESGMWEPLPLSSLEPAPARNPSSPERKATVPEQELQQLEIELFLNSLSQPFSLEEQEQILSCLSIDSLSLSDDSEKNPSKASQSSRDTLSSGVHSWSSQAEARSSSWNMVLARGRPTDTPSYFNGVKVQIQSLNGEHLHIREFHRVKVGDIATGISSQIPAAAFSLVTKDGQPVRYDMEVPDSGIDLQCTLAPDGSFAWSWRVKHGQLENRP
Protocol: Inhibition of Auto-Phosphorylation of Recombinant Human NF-kappaB-Inducing Kinase ([…]) Activity (AlphaScreen®)
NIK/MAP3K14 auto-phosphorylation activity was measured using the AlphaScreen® (αscreen) format (Perkin Elmer). All compounds tested were dissolved in dimethyl sulfoxide (DMSO) and further dilutions were made in assay buffer. Final DMSO concentration was […] in assays. Assay buffer was 50 mM Tris pH 7.5 containing 1 mM EGTA (ethylene glycol tetraacetic acid), 1 mM DTT (dithiothreitol), 0.1 mM Na3VO4, 5 mM MgCl2, 0.01% Tween® 20. Assays were carried out in 384 well Alphaplates (Perkin Elmer). Incubations consisted of compound, 25 microM Adenosine-5′-triphosphate (ATP), and 0.2 nM NIK/MAP3K14. Incubations were initiated by addition of GST-tagged NIK/MAP3K14 enzyme, carried out for 1 h at 25° C. and terminated by addition of stop buffer containing anti-phospho-[…] Ser176/180 antibody. Protein A Acceptor and Glutathione-Donor beads were added before reading using an EnVision® Multilabel Plate Reader (Perkin Elmer). Signal obtained in the wells containing blank samples was subtracted from all other wells and IC50's were determined by fitting a sigmoidal curve to % inhibition of control versus Log10 compound concentration.

[1] = tested on: P-IKKα levels in L363 cells; test: Effect of compounds on P-IKKα levels in L363 (NIK translocated multiple myeloma) cells; format: cell-based, human; conditions: 2 hr treatment, averaged values, read-out: Inhibition of pIKKα_L-363 (IC50 (nM))
Protocol: Effect of Compounds on P-IKKα Levels in L363 (NIK Translocated Multiple Myeloma) Cells
All compounds tested were dissolved in DMSO and further dilutions were made in culture medium. Final DMSO concentration was 1% (v/v) in cell assays. The human L363 cells (ATCC) were cultured in RPMI 1640 medium supplemented with GlutaMax and 10% fetal calf serum (PAA). Cells were routinely maintained at densities of 0.2×10^6 cells per ml—1×10^6 cells per ml at 37° C. in a humidified 5% CO2 atmosphere. Cells were passaged twice a week splitting back to obtain the low density. Cells were seeded in 96 well plates (Nunc 167008) at 2×10^6 per ml media in a volume of 75 μl per well plus 25 μl 1 μg/ml recombinant human B-cell activating factor (BAFF/BLyS/TNFSF13B). Seeded cells were incubated at 37° C. in a humidified 5% CO2 atmosphere for 24 hr. Drugs and/or solvents were added (20 μl) to a final volume of 120 μl. Following 2 hr treatment plates were removed from the incubator and cell lysis was achieved by the addition of 30 μl 5× lysis buffer followed by shaking on a plate shaker at 4° C. for 10 min. At the end of this incubation lysed cells were centrifuged at 800×g for 20 min at 4° C. and the lysate was assessed for P-IKKα levels by sandwich immuno-assay carried out in anti-rabbit antibody coated Mesoscale plates. Within an experiment, the results for each treatment were the mean of 2 replicate wells. For initial screening purposes, compounds were tested using an 8 point dilution curve (serial 1:3 dilutions). For each experiment, controls (containing MG132 and BAFF but no test drug) and a blank incubation (containing MG132 and BAFF and 10 μM ADS125117, a test concentration known to give full inhibition) were run in parallel. The blank incubation value was subtracted from all control and sample values. To determine the IC50 a sigmoidal curve was fitted to the plot of % inhibition of control P-IKKα levels versus Log10 compound concentration.

KMS12-BM cells = test: Antiproliferative activity on KMS12-BM (NIK WT) multiple myeloma cells (CellTiter-Glo); format: cell-based, human; conditions: Homo sapiens, KMS-12-BM, 96 h, 96 hr treatment, averaged values, read-out: KMS-12 Proliferation inhibition (IC50 (nM))
Protocol: (§1) Determination of Antiproliferative Activity on JJN-3 (NIK Translocated) and KMS12-BM (NIK WT) Multiple Myeloma Cells
(§2) All compounds tested were dissolved in DMSO and further dilutions were made in culture medium. Final DMSO concentration was 0.3% (v/v) in cell proliferation assays. Viability was assessed using CellTiter-Glo cell viability assay kit (Promega). The human JJN-3 and KMS12-BM cells (DSMZ) were cultured in RPMI 1640 medium supplemented with 2 mM L-glutamine, and 10% fetal calf serum (PAA). Cells were routinely kept as suspension cells at 37° C. in a humidified 5% CO2 atmosphere. Cells were passaged at a seeding density of 0.2×10^6/ml twice a week. Cells were seeded in black tissue culture treated 96-well plates (Perkin Elmer). Densities used for plating ranged from 15000 (JJN3) to 20000 (KMS12BM) cells per well in a total volume of […]. Drugs and/or solvents were added (15 μl) to a final volume of 150 μl. Following 96 hr of treatment, plates were removed from the incubator and allowed to equilibrate to room temperature for approx 10 min. 75 μl CellTiter-Glo reagent was added to each well that was then covered (Perkin Elmer Topseal) and shaken on plate shaker for 10 min. Luminescence was measured on a HTS Topcount (Perkin Elmer). Within an experiment, the results for each treatment were the mean of 2 replicate wells. For initial screening purposes, compounds were tested using a 9 point dilution curve (serial 1:3 dilutions). For each experiment, controls (containing no drug) and a blank incubation (containing cells read at the time of compound addition) were run in parallel. The blank value was subtracted from all control and sample values. For each sample, the mean value for cell growth (in relative light units) was expressed as a percentage of the mean value for cell growth of the control.

JJN-3 cells = test: Antiproliferative activity on JJN-3 (NIK translocated) multiple myeloma cells (CellTiter-Glo); format: cell-based, human; conditions: JJN-3 (NIK translocated) cells, 96 hr treatment, averaged values, read-out: JJN-3 Proliferation inhibition (IC50 (nM))
Protocol: as §1, §2

Row | Compound | IC50 (NIK/MAP3K14) | IC50 ([1]; Homo sapiens, L-363, 2 h) | IC50 (KMS12-BM cells) | IC50 (JJN-3 cells; Homo sapiens, JJN-3, 96 h) | IC50 [1] | IC50 (JJN-3 cells)
1 | CC(C)N1CCn2ncc(Nc3nccc(-c4cc(C#N)c5c(c4)[C@@](C)(CO)CN5)n3)c2C1=O [Compound 17b] | 3 nM | 3 nM | > 10000 nM | 309 nM |  | 
2 | COc1nc2c(cc1Nc1nccc(-c3cc(C#N)c4c(c3)[C@@](C)(CO)CN4)n1)CN(C1CC1)CC2 [Compound 52] | 7.8 nM | 20 nM | > 10000 nM | 200 nM |  | 
3 | CN1CCc2ncc(Nc3nccc(-c4cc(C#N)c5c(c4)[C@@](C)(CO)CN5)n3)cc2C1 [Compound 29] | 3.4 nM | 16 nM | 51 nM | ~27 nM |  | 
4 | Cc1c(Nc2nccc(-c3cc(C#N)c4c(c3)C(C)(CO)CN4)n2)ccc2c1CC(=O)N2 (stereo not drawn) [Compound 42] | 8.9 nM |  |  |  | 36 nM | 
5 | CC(C)Oc1nc2c(cc1Nc1nccc(-c3cc(C#N)c4c(c3)[C@@](C)(CO)CN4)n1)CN(C1CC1)CC2 [Compound 49] | 34.7 nM | 115 nM |  |  |  | 
6 | CNC(=O)CCn1ccc2c(Nc3nccc(-c4cc(C#N)c5c(c4)C(C)(C)CN5)n3)cc(Cl)cc21 [Compound 1c] | 30.2 nM | 23 nM | 1380 nM | 26 nM |  | 
7 | CC(C)CN1CCn2ncc(Nc3nccc(-c4cc(C#N)c5c(c4)[C@@](C)(CO)CN5)n3)c2C1=O [Compound 27b] | 4.47 nM | 13 nM | > 10000 nM | 1580 nM |  | 
8 | CC1OCCn2nc(Nc3nccc(-c4cc(C#N)c5c(c4)C(C)(C)CN5)n3)cc21 (stereo not drawn) [Compound 32b] | 5.9 nM | 8 nM |  |  |  | 
9 | COc1nc2c(cc1Nc1nccc(-c3cc(C#N)c4c(c3)C(C)(CC(F)F)CN4)n1)CN(C)CC2 (stereo not drawn) [Compound 56] | 12 nM | 76 nM | ~5750 nM | 3240 nM |  | 
10 | C[C@]1(CO)CNc2c(C#N)cc(-c3ccnc(Nc4cc5c(nc4C#CC4CC4)CCOC5)n3)cc21 [Compound 22] | 2240 nM | > 10000 nM |  |  |  | 
11 | CN1CCc2ncc(Nc3ncc(F)c(-c4cc(C#N)c5c(c4)[C@@](C)(CO)CN5)n3)cc2C1 [Compound 54] |  | 2 nM | ~9 nM | ~7 nM |  | 
12 | CC1CC(C)n2ncc(Nc3nccc(-c4cc(C#N)c5c(c4)C(C)(CO)CN5)n3)c2O1 (racemic) [Compound 20b] | 6.2 nM |  |  |  | 2 nM | 
13 | CN1CCc2nc(OCC3CC3)c(Nc3nccc(-c4cc(C#N)c5c(c4)[C@@](C)(CO)CN5)n3)cc2C1 [Compound 35] | 4.3 nM | 69 nM |  |  |  | 
14 | C[C@]1(CO)CNc2c(C#N)cc(-c3ccnc(Nc4cc5c(nc4OC4CCCC4)CCOC5)n3)cc21 [Compound 47] | 35.5 nM | 51 nM |  |  |  | 
15 | CN(C)C(=O)C1Cc2cc(Nc3nccc(-c4cc(C#N)c5c(c4)C(C)(C)CN5)n3)ccc2N1 (stereo not drawn) [Compound 43] | 6.6 nM | 5 nM |  |  |  | 
16 | CC1(C)CNc2c(C#N)cc(-c3ccnc(Nc4cc(Cl)cc5[nH]ccc45)n3)cc21 [Compound 7c] |  | 72 nM | > 10000 nM | 537 nM |  | 
17 | CN(C)C(=O)c1cc2cc(Nc3nccc(-c4cc(C#N)c5c(c4)C(C)(C)CN5)n3)ccc2[nH]1 [Compound 12c] | 10.5 nM | 14 nM |  |  |  | 
18 | COc1cc2[nH]ccc2cc1Nc1nccc(-c2cc(C#N)c3c(c2)C(C)(CO)CN3)n1 (stereo not drawn) [Compound 13c] | 6.2 nM | 3 nM |  |  |  | 

Continued, values first:

Row | IC50 (NIK/MAP3K14) | IC50 ([1]; Homo sapiens, L-363, 2 h) | IC50 (KMS12-BM cells) | IC50 (JJN-3 cells; Homo sapiens, JJN-3, 96 h) | IC50 [1] | IC50 (JJN-3 cells) | Compound
19 | 3 nM | ~74 nM | ~288 nM | ~214 nM |  |  | COc1cc2c(cc1Nc1nccc(-c3cc(C#N)c4c(c3)[C@@](C)(CO)CN4)n1)CCN(C)CC2 [Compound 24]
20 | 3.7 nM | 16 nM |  |  |  |  | CC(=O)N1CCc2c1ccc(Nc1nccc(-c3cc(C#N)c4c(c3)C(C)(CO)CN4)n1)c2F (stereo not drawn) [Compound 36]
21 | 4.8 nM | 17 nM | 603 nM | 100 nM |  |  | CCc1c(Nc2nccc(-c3cc(C#N)c4c(c3)[C@@](C)(CO)CN4)n2)ccc2c1CCN(C(C)CO)C2 (stereo partly drawn) [Compound 60]
22 | 1.5 nM | 4 nM | ~549 nM | 251 nM |  |  | C[C@]1(CO)CNc2c(C#N)cc(-c3ccnc(Nc4cnn5c4COCC5)n3)cc21 [Compound 12b]
23 | 11.8 nM | 3 nM | > 10000 nM | 138 nM |  |  | CC1(CO)CNc2c(C#N)cc(-c3ccnc(Nc4cc(Cl)cc5c4OCC5)n3)cc21 (stereo not drawn) [Compound 41]
24 | 3.9 nM |  | > 10000 nM |  | 6 nM | 85 nM | CC1CCCn2ncc(Nc3nccc(-c4cc(C#N)c5c(c4)[C@@](C)(CO)CN5)n3)c2O1 (single isomer, unassigned) [Compound 29b]
25 | 1.6 nM | 31 nM | > 10000 nM | ~2340 nM |  |  | Cn1c2c(cc(Nc3nccc(-c4cc(C#N)c5c(c4)[C@@](C)(CO)CN5)n3)c1=O)COCC2 [Compound 48]
26 | 1.4 nM | 2 nM | ~31 nM | 4 nM |  |  | CN1CCc2ccc(Nc3nccc(-c4cc(C#N)c5c(c4)[C@@](C)(CO)CN5)n3)cc2C1 [Compound 31]
27 | 4.3 nM | 3 nM |  |  |  |  | COc1cc2c(cc1Nc1nccc(-c3cc(C#N)c4c(c3)C(C)(CO)CN4)n1)CCN2C(=O)CN(C)C (stereo not drawn) [Compound 40]
28 | 4.3 nM | 9 nM |  |  |  |  | CC1(CO)CNc2c(C#N)cc(-c3ccnc(Nc4ccc5c(c4F)CCN5)n3)cc21 (stereo not drawn) [Compound 37]
29 |  | 1 nM | ~468 nM | 12 nM |  |  | COc1nc2c(cc1Nc1nccc(-c3cc(C#N)c4c(c3)[C@@](C)(CO)CN4)n1)CCN(C)C2 [Compound 53]
30 | 12.9 nM | 37 nM |  |  |  |  | COc1cc2c(cc1Nc1nccc(-c3cc(C#N)c4c(c3)C(C)(CO)CN4)n1)NC(=O)CC2 (stereo not drawn) [Compound 59]
31 | 3.4 nM | 12 nM |  |  |  |  | CN(C)CC(=O)N1CCc2c1ccc(Nc1nccc(-c3cc(C#N)c4c(c3)C(C)(CO)CN4)n1)c2F (stereo not drawn) [Compound 38]
32 | 2.5 nM | 3 nM |  |  |  |  | COc1cc2c(cc1Nc1nccc(-c3cc(C#N)c4c(c3)C(C)(CO)CN4)n1)CCN2C(C)=O (stereo not drawn) [Compound 39]
